Values joined by “and” are separate entries in the source; they are usually repeats but may differ in a detail not shown here. Equal values may be shown once. Read-outs that look alike come from different tables or passages of the source.
Key:
[1] = Plasma stability in rat plasma; type: in vitro ADME, Sprague Dawley rat; settings: final concentration 2 μM
Description: A study was conducted to examine the plasma stability. Test Compounds: COMPOUND D, COMPOUND E, and Viloxazine. Positive controls: Enalapril and Propantheline.
A study was conducted to examine the bioanalytical data for compounds in Rat plasma. Frozen Sprague Dawley rat (male pooled) and human (mixed gender) plasma was utilized for the study. Test compounds were dissolved in dimethyl sulfoxide (DMSO) to make a 10 mM stock solution. A working solution was made with MeOH/water. COMPOUND E ([…]) was incubated with plasma in duplicates at 37° C. in a water bath. Sampling timepoints included 0, 5, 15, 30, and 60 min Enalapril and propantheline were used as positive control for rat and human plasma at 2 μM

[2] = type: in vitro ADME, mouse; settings: mice Blood, wet ice bath, 5% Paraoxon ethyl as stabilizer; for % stability: 0.5 hr
[3] = Cellular and nuclear receptor functional assays; type: cell-based; settings: human recombinant (CHO cells)
Description: (§1) A study was conducted to test 5 compounds in cellular and nuclear receptor functional and enzyme and uptake assays.
The results are expressed as a percent of control agonist response or inverse agonist response and as a percent inhibition of control agonist response
The EC50 values (concentration producing a half-maximal response) and IC50 values (concentration causing a half-maximal inhibition of the control agonist response) were determined by non-linear regression analysis of the concentration-response curves generated with mean replicate values using Hill equation curve fitting […]
where Y=response, A=left asymptote of the curve, D=right asymptote of the curve, C=compound concentration, and C50=EC50 or IC50, and nH=slope factor. This analysis was performed using software developed at Cerep (Hill software) and validated by comparison with data generated by the commercial software SigmaPlot® 4.0 for Windows® (© 1997 by SPSS Inc.).
For the antagonists, the apparent dissociation constants (KB) were calculated using the modified Cheng Prusoff equation where A=concentration of reference agonist in the assay, and EC50A=EC50 value of the reference agonist.
In Vitro Pharmacology. Results showing an inhibition (or stimulation for assays run in basal conditions) higher than 50% were considered to represent significant effects of the test compounds. Results showing an inhibition (or stimulation) between 25% and 50% are indicative of weak to moderate effects. Results showing an inhibition (or stimulation) lower than 25% were not considered significant and mostly attributable to variability of the signal around the control level.

Binding assays = settings: 1.0E−05 M
Description: A study was conducted to test COMPOUND D and COMPOUND E in Binding and enzyme and uptake assays.
COMPOUND D and COMPOUND E were tested at 1.0E-05 M.
The results are expressed as a percent of control specific binding and as a percent inhibition of control specific binding
The IC50 values (concentration causing a half-maximal inhibition of control specific binding) and Hill coefficients (nH) were determined by non-linear regression analysis of the competition curves generated with mean replicate values using Hill equation curve fitting […]
where Y=specific binding, A=left asymptote of the curve, D=right asymptote of the curve, C=compound concentration, C50=IC50, and nH=slope factor. This analysis was performed using software developed at Cerep (Hill software) and validated by comparison with data generated by the commercial software SigmaPlot® 4.0 for Windows® (© 1997 by SPSS Inc.).
The inhibition constants (Ki) were calculated using the Cheng Prusoff equation where L=concentration of radioligand in the assay, and KD=affinity of the radioligand for the receptor. A scatchard plot is used to determine the KD.
In Vitro Pharmacology. Results showing an inhibition (or stimulation for assays run in basal conditions) higher than […] were considered to represent significant effects of the test compounds. Results showing an inhibition (or stimulation) between 25% and 50% are indicative of weak to moderate effects. Results showing an inhibition (or stimulation) lower than […] were not considered significant and mostly attributable to variability of the signal around the control level.

[4] = Preclinical PK after intraperitoneal dosing of COMPOUND D, COMPOUND B and viloxazine; type: in vivo, mouse; settings: COMPOUND D IP 10.978 mg/kg; for Cmax: read-out: Cmax, plasma COMPOUND D
Enzyme and uptake assays = type: biochemical; settings: human recombinant; [3H]NE incorporation into cells; read-out: IC50, Norepinephrine transporter uptake (h)
Description: as §1
The results are expressed as a percent of control specific activity
and as a percent inhibition of control specific activity
The IC50 values (concentration causing a half-maximal inhibition of control specific activity), EC50 values (concentration producing a half-maximal increase in control basal activity), and Hill coefficients (nH) were determined by non-linear regression analysis of the inhibition/concentration-response curves generated with mean replicate values using Hill equation curve fitting
where Y=specific activity, A=left asymptote of the curve, D=right asymptote of the curve, C=compound concentration, C50=IC50 or EC50, and nH=slope factor. This analysis was performed using software developed at Cerep (Hill software) and validated by comparison with data generated by the commercial software SigmaPlot® 4.0 for Windows® (© 1997 by SPSS Inc.).
In Vitro Pharmacology. Results showing an inhibition (or stimulation for assays run in basal conditions) higher than 50% were considered to represent significant effects of the test compounds. Results showing an inhibition (or stimulation) between 25% and 50% are indicative of weak to moderate effects. Results showing an inhibition (or stimulation) lower than 25% were not considered significant and mostly attributable to variability of the signal around the control level. […]

Structure (SMILES): CCOc1ccccc1OCC1CN(C(=O)OC(C)OC(=O)[C@H](N)C(C)C)CCO1 (some centres unmarked) [COMPOUND D]
- % Remaining at 60 min (Mean) [1]: 0.0%
- Mean peak area ([2]; HQC, 0 hr sample): 1.315
- % stability ([2]; HQC): 52%
- Mean peak area ([2]; HQC, 0.5 hr sample): 0.682
- Mean peak area ([2]; LQC, 0 hr sample): 0.00479
- % stability ([2]; LQC): 54.7%
- Mean peak area ([2]; LQC, 0.5 hr sample): 0.00262
- Kb ([3]; apparent dissociation constant, modified Cheng Prusoff equation, read-out: kB, 5-HT2B(h) (antagonist effect)): 750 nM
- IC50 ([3]; serotonin (30 nM), IP1, HTRF, read-out: IC50, 5-HT2B(h) (antagonist effect)): 4900 nM
- inhibition, 5-HT2B(h) (antagonist effect) (Binding assays): 81.5%
- inhibition, 5-HT2c(h) (antagonist effect) (Binding assays): 72.4%
- inhibition, 5-HT4e(h) (antagonist radioligand) (Binding assays): 78.6%
- inhibition, norepinephrine transporter(h) (antagonist radioligand) (Binding assays): 78.4%
- concentration at 0.25 h ([4]; CD-1, mouse, plasma, ip, 10.978 mg/kg, 0.250 h, individual mice, read-out: Plasma concentration of COMPOUND D): 3.44 ng/mL
- concentration at 0.5 h ([4]; CD-1, mouse, plasma, ip, 10.978 mg/kg, 0.500 h, individual mice, read-out: Plasma concentration of COMPOUND D): 1.12 ng/mL
- concentration at 1 h ([4]; CD-1, mouse, plasma, ip, 10.978 mg/kg, 1.00 h, individual mice): 5.74 ng/mL
- concentration at 24 h ([4]; CD-1, mouse, plasma, ip, 10.978 mg/kg, 24.0 h, individual mice): 3.48 ng/mL
- Cmax ([4]; CD-1, mouse, plasma, ip, 10.978 mg/kg, individual mice): 5.74 ng/mL
- AUC(0-t) ([4]; CD-1, mouse, plasma, ip, 10.978 mg/kg, mean, read-out: AUC0-last, plasma COMPOUND D): 42.3 ng·h/mL
- Cmax ([4]; CD-1, mouse, plasma, ip, 10.978 mg/kg, mean): 4.61 ng/mL
- MRT last ([4]; CD-1, mouse, plasma, ip, 10.978 mg/kg, mean, read-out: MRT0-last, plasma COMPOUND D): 6.5 h
- Tmax ([4]; CD-1, mouse, plasma, ip, 10.978 mg/kg, mean, read-out: Tmax, plasma COMPOUND D): 12.5 h
- Plasma concentration of COMPOUND D ([4]; 0.250 h, individual mice, 10.978 mg/kg): BQL
- Plasma concentration of COMPOUND D ([4]; 0.500 h, individual mice, 10.978 mg/kg): BQL
- Plasma concentration of COMPOUND D ([4]; 1.00 h, individual mice, 10.978 mg/kg): BQL
- Plasma concentration of COMPOUND D ([4]; 2.00 h, individual mice): BQL
- Plasma concentration of COMPOUND D ([4]; 4.00 h, individual mice): BQL
- Plasma concentration of COMPOUND D ([4]; 8.00 h, individual mice): BQL
- Plasma concentration of Viloxazine ([4]; 8.00 h, individual mice, 10.978 mg/kg): BQL
- Plasma concentration of Viloxazine ([4]; 24.0 h, individual mice): BQL
- Plasma concentration of COMPOUND D ([4]; 24.0 h, individual mice, 10.978 mg/kg): BQL
- AUC0-last, plasma COMPOUND D ([4]; individual mice, 10.978 mg/kg): 2.00 ng·h/mL and 82.6 ng·h/mL
- Cmax, plasma COMPOUND D ([4]; individual mice, 10.978 mg/kg): 3.48 ng/mL
- MRT0-last, plasma COMPOUND D ([4]; individual mice, 10.978 mg/kg): 0.860 h and 12.1 h
- Tlast, plasma COMPOUND D ([4]; individual mice, 10.978 mg/kg): 1.00 h and 24.0 h
- Tmax, plasma COMPOUND D ([4]; individual mice, 10.978 mg/kg): 1.00 h and 24.0 h
- Tlast, plasma COMPOUND D ([4]; mean): 12.5 h
- IC50 (Enzyme and uptake assays): 870 nM

Reference: patent US20240343699A1, “DERIVATIVES OF SUBSTITUTED MORPHOLINES AND USES THEREOF” (Supernus Pharmaceuticals, Inc., priority 2023, published 2024)
